Source: patent US20260184713A1, “KINASE INHIBITORS” (The United States of America, as represented by the …, priority 2022, published 2026)
pIC50: −log10 of the molar value. Like-named read-outs stand apart in the source and are kept apart here.

How the values were obtained:
CK1α1 = CK1α1 (Homo sapiens, UniProt P48729); assay: HOTSPOT radiometric kinase assay
PKN1 = target: T1, PKN1 (Homo sapiens, UniProt Q16512); assay: HOTSPOT radiometric kinase assay; type: biochemical; conditions: 10 μM ATP
T1 construct: purchased Reaction Biology Corp

PKCδ = target: T2, PKCδ (Homo sapiens, UniProt Q05655); assay: HOTSPOT radiometric kinase assay; type: biochemical
T2 construct: purchased Reaction Biology Corp

NLK = target: T3, NLK (Homo sapiens, UniProt Q9UBE8); assay: HOTSPOT radiometric kinase assay; type: biochemical; conditions: 10 μM ATP
T3 construct: purchased Reaction Biology Corp

STK33 = target: T4, STK33 (Homo sapiens, UniProt Q9BYT3); assay: HOTSPOT radiometric kinase assay; type: biochemical; conditions: 10 μM ATP
T4 construct: purchased Reaction Biology Corp

CLK4 = target: T5, CLK4 (Homo sapiens, UniProt Q9HAZ1); assay: HOTSPOT radiometric kinase assay; type: biochemical
T5 construct: purchased Reaction Biology Corp

PKG2 = target: T6, PKG2 (Homo sapiens, UniProt Q13237); assay: HOTSPOT radiometric kinase assay; type: biochemical; conditions: 10 μM ATP
T6 construct: purchased Reaction Biology Corp

ROCK1 = target: T7, ROCK1 (Homo sapiens, UniProt Q13464); assay: HOTSPOT radiometric kinase assay; type: biochemical; conditions: 10 μM ATP
T7 construct: purchased Reaction Biology Corp

DYRK1B = DYRK1B (Homo sapiens, UniProt Q9Y463); assay: HOTSPOT radiometric kinase assay; type: biochemical
P70S6K = target: T8, P70S6K (Homo sapiens, UniProt P23443); assay: HOTSPOT radiometric kinase assay; type: biochemical; conditions: 10 μM ATP
T8 construct: purchased Reaction Biology Corp

Luciferase = assay: luciferase assay without PKA (Luciferase Only); type: biochemical
Excerpt: . Therefore, a competitive kinetic study was further conducted to investigate how 1 interacted with the PKA protein. […]. Thus, all the results supported that 1 was likely to function as an ATP-competitive inhibitor by direct interacting with the PKA catalytic unit (see FIGS. 2A-2B).

MPSK1 = target: T9, MPSK1 (Homo sapiens, UniProt O75716); assay: HOTSPOT radiometric kinase assay; type: biochemical; conditions: 10 μM ATP
T9 construct: purchased Reaction Biology Corp

LATS1 = target: T10, LATS1 (Homo sapiens, UniProt O95835); assay: HOTSPOT radiometric kinase assay; type: biochemical; conditions: 10 μM ATP
T10 construct: purchased Reaction Biology Corp
T10 sequence (O95835 1-1130): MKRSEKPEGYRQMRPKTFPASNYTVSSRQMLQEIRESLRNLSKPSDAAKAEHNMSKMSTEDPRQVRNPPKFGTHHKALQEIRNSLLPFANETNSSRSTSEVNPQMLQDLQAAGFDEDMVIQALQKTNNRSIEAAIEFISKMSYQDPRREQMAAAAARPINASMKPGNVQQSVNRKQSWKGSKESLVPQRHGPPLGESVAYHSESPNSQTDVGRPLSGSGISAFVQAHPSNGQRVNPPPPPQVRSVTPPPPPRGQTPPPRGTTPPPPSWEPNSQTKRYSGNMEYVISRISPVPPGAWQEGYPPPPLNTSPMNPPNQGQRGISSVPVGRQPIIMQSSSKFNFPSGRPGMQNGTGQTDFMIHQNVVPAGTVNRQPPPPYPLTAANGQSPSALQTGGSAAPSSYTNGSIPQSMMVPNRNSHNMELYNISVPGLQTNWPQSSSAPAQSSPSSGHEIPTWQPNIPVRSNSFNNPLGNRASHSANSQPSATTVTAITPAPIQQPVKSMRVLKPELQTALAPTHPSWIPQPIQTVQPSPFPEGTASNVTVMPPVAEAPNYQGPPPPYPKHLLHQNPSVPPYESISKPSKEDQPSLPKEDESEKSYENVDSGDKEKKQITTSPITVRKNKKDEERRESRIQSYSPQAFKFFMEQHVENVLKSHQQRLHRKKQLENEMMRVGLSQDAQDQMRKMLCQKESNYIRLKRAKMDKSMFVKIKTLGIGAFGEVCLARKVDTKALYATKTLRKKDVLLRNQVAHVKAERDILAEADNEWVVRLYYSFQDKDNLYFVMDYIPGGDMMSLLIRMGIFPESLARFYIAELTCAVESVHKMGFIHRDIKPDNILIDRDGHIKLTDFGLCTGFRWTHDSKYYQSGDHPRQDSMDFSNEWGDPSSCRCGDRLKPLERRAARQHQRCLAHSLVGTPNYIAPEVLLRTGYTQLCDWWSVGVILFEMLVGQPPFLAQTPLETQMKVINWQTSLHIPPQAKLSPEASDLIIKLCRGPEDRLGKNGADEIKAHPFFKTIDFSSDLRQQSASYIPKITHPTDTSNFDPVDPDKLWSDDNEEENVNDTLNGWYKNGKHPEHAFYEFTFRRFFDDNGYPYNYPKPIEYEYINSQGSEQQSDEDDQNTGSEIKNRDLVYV

HASPIN = target: T11, HASPIN (Homo sapiens, UniProt Q8TF76); assay: HOTSPOT radiometric kinase assay; type: biochemical; conditions: 10 μM ATP
T11 construct: purchased Reaction Biology Corp

DCAMKL1 = target: T12, DCAMKL1 (Homo sapiens, UniProt O15075); assay: HOTSPOT radiometric kinase assay; type: biochemical; conditions: 10 μM ATP
T12 construct: purchased Reaction Biology Corp

PKCθ = target: T13, PKCθ (Homo sapiens, UniProt Q04759); assay: HOTSPOT radiometric kinase assay; type: biochemical; conditions: 2 μM, 10 μM ATP
T13 construct: purchased Reaction Biology Corp

LATS2 = target: T14, LATS2 (Homo sapiens, UniProt Q9NRM7); assay: HOTSPOT radiometric kinase assay; type: biochemical; conditions: 10 μM ATP
T14 construct: purchased Reaction Biology Corp

BRAF = target: T15, BRAF (Homo sapiens, UniProt P15056); assay: HOTSPOT radiometric kinase assay; type: biochemical; conditions: 10 μM ATP
T15 construct: purchased Reaction Biology Corp

Chain of DYRK1B (Q9Y463 whole entry): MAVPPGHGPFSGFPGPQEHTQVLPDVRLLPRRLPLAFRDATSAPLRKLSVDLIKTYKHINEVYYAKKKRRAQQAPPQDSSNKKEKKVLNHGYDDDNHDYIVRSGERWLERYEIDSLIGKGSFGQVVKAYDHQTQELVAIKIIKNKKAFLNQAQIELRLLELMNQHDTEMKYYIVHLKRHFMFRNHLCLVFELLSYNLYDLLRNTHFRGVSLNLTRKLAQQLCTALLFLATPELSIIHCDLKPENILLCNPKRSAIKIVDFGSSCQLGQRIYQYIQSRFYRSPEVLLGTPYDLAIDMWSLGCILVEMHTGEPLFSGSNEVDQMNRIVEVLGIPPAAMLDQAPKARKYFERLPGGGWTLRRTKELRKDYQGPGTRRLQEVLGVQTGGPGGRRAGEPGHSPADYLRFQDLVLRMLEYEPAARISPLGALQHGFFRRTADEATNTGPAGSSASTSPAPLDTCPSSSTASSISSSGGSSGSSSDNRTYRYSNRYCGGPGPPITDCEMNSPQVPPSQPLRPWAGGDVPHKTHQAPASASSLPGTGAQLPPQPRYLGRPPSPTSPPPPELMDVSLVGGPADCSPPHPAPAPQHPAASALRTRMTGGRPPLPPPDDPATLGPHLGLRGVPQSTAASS
T5 sequence (Q9HAZ1 whole entry): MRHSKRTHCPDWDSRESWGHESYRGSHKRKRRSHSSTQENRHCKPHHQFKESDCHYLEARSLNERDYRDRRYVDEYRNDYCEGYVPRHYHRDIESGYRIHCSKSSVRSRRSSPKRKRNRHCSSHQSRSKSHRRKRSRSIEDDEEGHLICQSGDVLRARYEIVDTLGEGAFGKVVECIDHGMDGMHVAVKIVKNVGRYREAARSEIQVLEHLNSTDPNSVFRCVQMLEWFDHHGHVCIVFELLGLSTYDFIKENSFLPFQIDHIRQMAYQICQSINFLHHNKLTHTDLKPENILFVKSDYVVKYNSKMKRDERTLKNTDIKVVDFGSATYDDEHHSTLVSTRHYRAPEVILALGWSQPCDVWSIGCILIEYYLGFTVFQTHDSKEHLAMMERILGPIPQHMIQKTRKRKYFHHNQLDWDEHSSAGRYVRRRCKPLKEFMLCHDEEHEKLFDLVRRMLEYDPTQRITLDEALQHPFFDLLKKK
T2 sequence (Q05655 whole entry): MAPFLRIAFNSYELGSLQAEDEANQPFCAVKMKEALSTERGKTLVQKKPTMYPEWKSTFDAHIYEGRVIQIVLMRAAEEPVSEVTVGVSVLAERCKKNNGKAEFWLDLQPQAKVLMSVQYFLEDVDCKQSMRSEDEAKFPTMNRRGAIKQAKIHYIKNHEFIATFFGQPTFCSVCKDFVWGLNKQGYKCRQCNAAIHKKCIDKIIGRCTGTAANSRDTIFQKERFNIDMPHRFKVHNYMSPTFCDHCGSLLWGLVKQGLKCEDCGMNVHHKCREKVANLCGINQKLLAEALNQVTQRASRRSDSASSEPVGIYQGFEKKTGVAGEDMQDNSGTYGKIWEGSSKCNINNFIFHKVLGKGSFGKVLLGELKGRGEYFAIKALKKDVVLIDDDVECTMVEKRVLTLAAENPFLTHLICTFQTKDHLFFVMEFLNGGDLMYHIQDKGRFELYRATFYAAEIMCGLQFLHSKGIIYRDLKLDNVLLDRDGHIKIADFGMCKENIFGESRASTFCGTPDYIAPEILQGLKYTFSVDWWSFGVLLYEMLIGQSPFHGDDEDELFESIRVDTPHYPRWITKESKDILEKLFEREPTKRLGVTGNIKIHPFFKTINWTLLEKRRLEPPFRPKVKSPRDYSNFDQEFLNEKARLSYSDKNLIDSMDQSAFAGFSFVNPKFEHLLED
T3 sequence (Q9UBE8 whole entry): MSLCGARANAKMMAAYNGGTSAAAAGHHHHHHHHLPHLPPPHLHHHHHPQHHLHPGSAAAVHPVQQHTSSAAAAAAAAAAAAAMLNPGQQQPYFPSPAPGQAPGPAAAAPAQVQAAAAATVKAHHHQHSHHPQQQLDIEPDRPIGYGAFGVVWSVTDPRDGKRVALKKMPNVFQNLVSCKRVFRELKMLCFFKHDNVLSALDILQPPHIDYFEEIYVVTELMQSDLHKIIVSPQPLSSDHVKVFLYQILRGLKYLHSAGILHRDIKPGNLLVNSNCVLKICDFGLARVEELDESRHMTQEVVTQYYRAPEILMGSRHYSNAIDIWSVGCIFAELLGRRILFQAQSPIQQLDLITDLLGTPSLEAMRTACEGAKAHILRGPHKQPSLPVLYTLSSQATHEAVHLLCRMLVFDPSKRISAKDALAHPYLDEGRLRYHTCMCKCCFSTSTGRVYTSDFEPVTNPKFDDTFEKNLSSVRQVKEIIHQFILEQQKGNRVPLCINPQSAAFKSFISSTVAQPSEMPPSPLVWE
T4 sequence (Q9BYT3 whole entry): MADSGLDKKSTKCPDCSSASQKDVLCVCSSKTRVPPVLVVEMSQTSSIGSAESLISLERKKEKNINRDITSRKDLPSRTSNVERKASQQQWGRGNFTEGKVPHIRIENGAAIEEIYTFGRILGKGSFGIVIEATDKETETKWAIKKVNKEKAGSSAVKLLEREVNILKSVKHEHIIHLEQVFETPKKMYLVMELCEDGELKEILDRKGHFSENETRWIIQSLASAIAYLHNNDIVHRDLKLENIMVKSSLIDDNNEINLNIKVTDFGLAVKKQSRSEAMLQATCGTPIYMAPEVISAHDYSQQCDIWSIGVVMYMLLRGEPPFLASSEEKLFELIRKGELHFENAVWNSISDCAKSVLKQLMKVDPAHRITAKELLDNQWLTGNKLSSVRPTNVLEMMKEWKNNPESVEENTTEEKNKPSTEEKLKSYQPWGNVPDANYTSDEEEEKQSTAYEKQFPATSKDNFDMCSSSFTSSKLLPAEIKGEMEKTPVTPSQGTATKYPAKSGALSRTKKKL
T11 sequence (Q8TF76 whole entry): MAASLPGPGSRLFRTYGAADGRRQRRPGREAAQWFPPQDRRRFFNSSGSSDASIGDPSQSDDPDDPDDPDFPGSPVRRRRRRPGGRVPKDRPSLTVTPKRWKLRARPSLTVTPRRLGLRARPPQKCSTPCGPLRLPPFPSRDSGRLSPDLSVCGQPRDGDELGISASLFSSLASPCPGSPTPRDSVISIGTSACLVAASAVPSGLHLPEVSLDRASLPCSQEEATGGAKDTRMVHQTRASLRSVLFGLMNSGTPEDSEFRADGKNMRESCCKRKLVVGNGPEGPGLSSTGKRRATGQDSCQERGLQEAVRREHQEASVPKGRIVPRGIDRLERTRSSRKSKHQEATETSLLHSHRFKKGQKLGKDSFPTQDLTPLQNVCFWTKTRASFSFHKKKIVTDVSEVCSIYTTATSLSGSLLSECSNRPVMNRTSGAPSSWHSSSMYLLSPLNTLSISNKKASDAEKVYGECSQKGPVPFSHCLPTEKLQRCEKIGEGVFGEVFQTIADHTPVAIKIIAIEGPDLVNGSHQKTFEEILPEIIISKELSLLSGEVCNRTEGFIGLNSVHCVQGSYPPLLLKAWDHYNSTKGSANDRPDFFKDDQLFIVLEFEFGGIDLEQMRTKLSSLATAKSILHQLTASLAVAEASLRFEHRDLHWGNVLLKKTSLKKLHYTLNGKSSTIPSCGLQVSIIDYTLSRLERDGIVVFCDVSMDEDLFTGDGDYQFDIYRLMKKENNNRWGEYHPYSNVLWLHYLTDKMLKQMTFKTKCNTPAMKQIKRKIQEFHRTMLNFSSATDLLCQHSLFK
Chain of CK1α1 (P48729 whole entry): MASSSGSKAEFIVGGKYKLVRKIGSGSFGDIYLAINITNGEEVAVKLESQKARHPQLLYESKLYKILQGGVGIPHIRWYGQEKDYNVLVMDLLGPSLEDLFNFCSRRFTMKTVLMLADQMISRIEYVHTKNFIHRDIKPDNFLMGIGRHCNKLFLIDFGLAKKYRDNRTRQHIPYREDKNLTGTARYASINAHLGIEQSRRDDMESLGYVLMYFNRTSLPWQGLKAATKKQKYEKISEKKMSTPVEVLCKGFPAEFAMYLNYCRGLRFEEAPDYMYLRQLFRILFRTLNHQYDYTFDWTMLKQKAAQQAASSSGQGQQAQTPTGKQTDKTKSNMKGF
T12 sequence (O15075 whole entry): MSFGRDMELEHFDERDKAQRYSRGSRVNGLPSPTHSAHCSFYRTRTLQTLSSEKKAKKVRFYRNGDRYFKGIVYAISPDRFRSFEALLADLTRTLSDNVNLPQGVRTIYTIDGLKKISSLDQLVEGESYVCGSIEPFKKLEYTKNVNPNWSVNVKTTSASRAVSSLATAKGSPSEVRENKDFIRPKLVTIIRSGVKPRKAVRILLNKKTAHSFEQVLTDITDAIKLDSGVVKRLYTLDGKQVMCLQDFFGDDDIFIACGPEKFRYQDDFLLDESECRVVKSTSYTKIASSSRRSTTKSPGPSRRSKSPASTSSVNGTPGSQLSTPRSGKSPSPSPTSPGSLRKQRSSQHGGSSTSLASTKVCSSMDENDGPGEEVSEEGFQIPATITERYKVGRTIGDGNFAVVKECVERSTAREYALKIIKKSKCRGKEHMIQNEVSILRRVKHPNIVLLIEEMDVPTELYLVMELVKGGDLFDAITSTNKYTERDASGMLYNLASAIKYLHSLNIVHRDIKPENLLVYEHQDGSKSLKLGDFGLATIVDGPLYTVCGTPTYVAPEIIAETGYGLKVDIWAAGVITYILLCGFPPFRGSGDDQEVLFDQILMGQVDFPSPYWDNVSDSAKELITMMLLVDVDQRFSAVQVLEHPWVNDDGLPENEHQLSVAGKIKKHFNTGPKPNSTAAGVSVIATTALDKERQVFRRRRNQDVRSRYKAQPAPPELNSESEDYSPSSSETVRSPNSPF
T9 sequence (O75716 whole entry): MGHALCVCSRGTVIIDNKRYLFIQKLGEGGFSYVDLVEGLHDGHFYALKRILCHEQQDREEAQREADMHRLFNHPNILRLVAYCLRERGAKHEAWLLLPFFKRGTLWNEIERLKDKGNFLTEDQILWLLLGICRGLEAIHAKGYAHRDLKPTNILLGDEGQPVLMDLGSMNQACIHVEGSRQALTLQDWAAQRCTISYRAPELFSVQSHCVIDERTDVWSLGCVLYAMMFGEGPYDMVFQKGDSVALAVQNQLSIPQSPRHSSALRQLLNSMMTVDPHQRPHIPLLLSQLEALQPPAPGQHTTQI

Cn1cncc1C1=CN(c2ncnc3nc[nH]c23)CCS1 [Compound 1, Aplithianine A]
pIC50 (CK1α1): 5.18 to 6.10
pIC50 (CK1α1; read-out: CK1α1 IC50, 10 μM ATP): 5.74
inhibition at 0.05 µM (PKN1; 50 nM): 18.8%
inhibition at 2 µM (PKN1; 2 μM): 87.7%
inhibition at 0.05 µM (PKCδ; 50 nM, 10 μM ATP): 12.6%
inhibition at 2 µM (PKCδ; 2 μM, 10 μM ATP): 81.1%
pIC50 (PKCδ; 10 μM ATP, read-out: PKCδ IC50): 6.74
PKCd Differential (as compared to PKG1a) (PKCδ; IC50 (kinase)/IC50 (PKG1a)): 16.77
pIC50 (PKCδ; Table 4 dose-response, read-out: PKCd IC50 Values): 6.72
inhibition at 0.05 µM (NLK; 50 nM): 19.6%
inhibition at 2 µM (NLK; 2 μM): 43%
inhibition at 0.05 µM (STK33; 50 nM): 23.6%
inhibition at 2 µM (STK33; 2 μM): 80.5%
inhibition at 0.05 µM (CLK4; 50 nM, 10 μM ATP): 27.1%
inhibition at 2 µM (CLK4; 2 μM, 10 μM ATP): 84.7%
pIC50 (CLK4; 10 μM ATP, read-out: CLK4 IC50): 6.82
CLK4 Differential (as compared to PKG1a) (CLK4; IC50 (kinase)/IC50 (PKG1a)): 13.49
pIC50 (CLK4; Table 4 dose-response, read-out: CLK4 IC50 Values): 6.81
inhibition at 2 µM (PKG2): 99.4%
inhibition at 0.05 µM (ROCK1; 50 nM): 27%
inhibition at 2 µM (ROCK1; 2 μM): 88.6%
inhibition at 0.05 µM (DYRK1B; 50 nM, 10 μM ATP): 22.7%
inhibition at 2 µM (DYRK1B; 2 μM, 10 μM ATP): 95.3%
pIC50 (DYRK1B; 10 μM ATP, read-out: DYRK1B IC50): 6.87
DYRK1B Differential (as compared to PKG1a) (DYRK1B; IC50 (kinase)/IC50 (PKG1a)): 11.87
pIC50 (DYRK1B; Table 4 dose-response, read-out: DYRK1B IC50 Values): 6.87
inhibition at 0.05 µM (P70S6K; 50 nM): 14%
inhibition at 2 µM (P70S6K; 2 μM): 87.3%
activity when PKA was absent in the assay (Luciferase): no activity was observed
inhibition at 0.05 µM (MPSK1; 50 nM): 22%
inhibition at 2 µM (MPSK1; 2 μM): 49.5%
inhibition at 0.05 µM (LATS1; 50 nM): 35%
inhibition at 2 µM (LATS1; 2 μM): 96.1%
inhibition at 0.05 µM (HASPIN; 50 nM): 25.6%
inhibition at 2 µM (HASPIN; 2 μM): 88.4%
inhibition at 0.05 µM (DCAMKL1; 50 nM): 12.8%
inhibition at 2 µM (DCAMKL1; 2 μM): 14.2%
inhibition at 2 µM (PKCθ): 97.9%
inhibition at 0.05 µM (LATS2; 50 nM): 34.2%
inhibition at 2 µM (LATS2; 2 μM): 92.9%
inhibition at 0.05 µM (BRAF; 50 nM): 12.9%
inhibition at 2 µM (BRAF; 2 μM): 35.1%
